Assay results as given in ChEMBL document CHEMBL1201862, “PubChem BioAssay data set” (2004).
The source made the active and inactive calls.

How the values were obtained:
[1] = target: T1, Probable nicotinate-nucleotide adenylyltransferase (Staphylococcus aureus (strain N315), UniProt P65502); assay type: functional, Staphylococcus aureus subsp. aureus N315;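 for IC50 Mean: confirmatory dose-response retesting of NadD inhibitor hits first found in an ultra-high-throughput screen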
Prothrombin = Prothrombin (Homo sapiens, UniProt P00734); assay: Thrombin 1536 HTS Dose Response Confirmation. [Related pubchem assays: 1046 (Thrombin 1536 HTS; hits were confirmed in this assay)]; assay type: functional
[2] = HEp-2 cell cytotoxicity, dose response, cytotoxicity control for RSV inhibitor project, HTS (AID 2410); assay type: functional; details: human respiratory syncytial virus
[3] = target: T1, Probable nicotinate-nucleotide adenylyltransferase; assay type: functional, Staphylococcus aureus subsp. aureus N315; details: read-out: IC50_Mean
[4] = Luminescence Cell-Based Dose Response HTS to Identify Inhibitors of 5'UTR Stem-Loop Driven Prion Protein mRNA Translation in H4 Neuroglioblastoma Cells. [Related pubchem assays: 1827 (Project Summary), 1813 (Primary HTS)]; assay type: functional
[5] = MC4R antagonists, dose response, counter-screen for LGR2 antagonist project, cell-based, plate reader, cherry pick (AID 743444); assay type: functional;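 note: transfected HEK 293 cells stimulated with alpha-MSH peptide; potency of inhibitors of the alpha-MSH evoked signal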
[6] = LGR2 antagonists, dose response, cell-based, HEK293, CRE-luciferase reporter, cherry pick, set 2 (AID 743343); assay type: functional;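 note: transfected cells were stimulated with diluted bursicon conditioned medium after compound addition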
[7] = HEK293 cell cytotoxicity, dose response, cytotoxicity control, plate reader, cherry-picked samples (AID 743446); assay type: functional, cell-based
[8] = inhibitors of firefly luciferase expression or activity, dose response, H4 neuroglioma cells, luminescence (AID 1990); assay type: functional, cell-based
[9] = inhibitors of SNCA 5'UTR-driven reporter translation, confirmation, H4 neuroglioma cells, luminescence (AID 1988); assay type: functional, cell-based
HEK293 = assay: inhibitors of LMP1-driven NF-kB reporter, dose response, cell-based, HEK293, luciferase, cherry-pick (AID 588343); assay type: functional; details: Homo sapiens
[10] = target: T2, Replicative DNA helicase DnaB (Mycobacterium tuberculosis, UniProt P9WMR3); assay: DnaB intein splicing inhibitors, dose response, biochemical, cell-free fluorescence (AID 449749); assay type: functional
T2 sequence (P9WMR3 whole entry): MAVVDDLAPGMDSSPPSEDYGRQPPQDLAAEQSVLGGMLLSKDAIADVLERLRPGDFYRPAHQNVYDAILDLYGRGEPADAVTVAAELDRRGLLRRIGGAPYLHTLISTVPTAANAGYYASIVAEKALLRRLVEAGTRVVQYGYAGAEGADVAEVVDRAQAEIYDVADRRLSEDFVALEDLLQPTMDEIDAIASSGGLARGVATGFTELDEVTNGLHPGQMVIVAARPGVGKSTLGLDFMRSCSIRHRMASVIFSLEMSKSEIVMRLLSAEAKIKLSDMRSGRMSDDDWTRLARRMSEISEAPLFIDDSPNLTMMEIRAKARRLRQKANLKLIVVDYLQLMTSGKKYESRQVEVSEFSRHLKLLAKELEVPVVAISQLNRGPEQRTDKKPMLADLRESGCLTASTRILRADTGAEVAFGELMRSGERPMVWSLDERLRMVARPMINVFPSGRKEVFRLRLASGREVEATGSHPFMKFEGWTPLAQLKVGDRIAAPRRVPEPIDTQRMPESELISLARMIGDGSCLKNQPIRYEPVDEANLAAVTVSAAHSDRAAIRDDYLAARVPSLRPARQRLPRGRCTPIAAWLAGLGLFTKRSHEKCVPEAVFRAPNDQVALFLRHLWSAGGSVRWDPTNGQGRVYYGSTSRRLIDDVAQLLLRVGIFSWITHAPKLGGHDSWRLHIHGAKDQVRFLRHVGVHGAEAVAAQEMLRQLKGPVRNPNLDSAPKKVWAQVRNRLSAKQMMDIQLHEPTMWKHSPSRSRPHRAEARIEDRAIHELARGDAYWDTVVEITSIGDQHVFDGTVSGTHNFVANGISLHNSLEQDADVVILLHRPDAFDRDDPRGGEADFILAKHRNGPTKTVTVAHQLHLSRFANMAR

Protein RecA = target: T3, Protein RecA (Mycobacterium tuberculosis, UniProt P9WHJ3); assay: Fluorescence Cell-Free Homogeneous Dose Retest to Identify Inhibitors of RecA-Intein Splicing Activity. [Related pubchem assays (depositor defined):AID2097, AID2223, AID489010, AID492950]; assay type: functional
T3 sequence (P9WHJ3 whole entry): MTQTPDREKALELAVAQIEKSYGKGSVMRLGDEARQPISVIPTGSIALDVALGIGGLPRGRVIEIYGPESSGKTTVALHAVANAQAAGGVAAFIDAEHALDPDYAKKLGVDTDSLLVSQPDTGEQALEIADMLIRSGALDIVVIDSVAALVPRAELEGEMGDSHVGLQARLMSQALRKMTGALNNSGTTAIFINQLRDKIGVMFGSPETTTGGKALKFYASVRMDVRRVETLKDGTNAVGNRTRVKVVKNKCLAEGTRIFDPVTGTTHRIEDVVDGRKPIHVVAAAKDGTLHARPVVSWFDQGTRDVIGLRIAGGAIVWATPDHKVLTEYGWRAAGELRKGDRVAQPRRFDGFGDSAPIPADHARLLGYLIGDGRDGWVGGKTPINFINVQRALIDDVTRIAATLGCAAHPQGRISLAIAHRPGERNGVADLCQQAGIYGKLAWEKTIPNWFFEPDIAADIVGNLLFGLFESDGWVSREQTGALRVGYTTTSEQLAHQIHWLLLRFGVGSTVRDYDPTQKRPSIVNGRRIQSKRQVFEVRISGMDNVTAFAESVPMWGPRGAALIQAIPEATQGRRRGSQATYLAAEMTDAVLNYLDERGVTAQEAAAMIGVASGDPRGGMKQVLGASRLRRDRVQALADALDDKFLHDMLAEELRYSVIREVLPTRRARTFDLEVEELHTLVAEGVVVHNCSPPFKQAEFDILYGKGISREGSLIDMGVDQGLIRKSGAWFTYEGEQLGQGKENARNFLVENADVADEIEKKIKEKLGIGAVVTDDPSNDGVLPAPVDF

[11] = target: T4, Apoptotic protease-activating factor 1 (Homo sapiens, UniProt O14727); assay type: functional
T4 sequence (O14727 whole entry): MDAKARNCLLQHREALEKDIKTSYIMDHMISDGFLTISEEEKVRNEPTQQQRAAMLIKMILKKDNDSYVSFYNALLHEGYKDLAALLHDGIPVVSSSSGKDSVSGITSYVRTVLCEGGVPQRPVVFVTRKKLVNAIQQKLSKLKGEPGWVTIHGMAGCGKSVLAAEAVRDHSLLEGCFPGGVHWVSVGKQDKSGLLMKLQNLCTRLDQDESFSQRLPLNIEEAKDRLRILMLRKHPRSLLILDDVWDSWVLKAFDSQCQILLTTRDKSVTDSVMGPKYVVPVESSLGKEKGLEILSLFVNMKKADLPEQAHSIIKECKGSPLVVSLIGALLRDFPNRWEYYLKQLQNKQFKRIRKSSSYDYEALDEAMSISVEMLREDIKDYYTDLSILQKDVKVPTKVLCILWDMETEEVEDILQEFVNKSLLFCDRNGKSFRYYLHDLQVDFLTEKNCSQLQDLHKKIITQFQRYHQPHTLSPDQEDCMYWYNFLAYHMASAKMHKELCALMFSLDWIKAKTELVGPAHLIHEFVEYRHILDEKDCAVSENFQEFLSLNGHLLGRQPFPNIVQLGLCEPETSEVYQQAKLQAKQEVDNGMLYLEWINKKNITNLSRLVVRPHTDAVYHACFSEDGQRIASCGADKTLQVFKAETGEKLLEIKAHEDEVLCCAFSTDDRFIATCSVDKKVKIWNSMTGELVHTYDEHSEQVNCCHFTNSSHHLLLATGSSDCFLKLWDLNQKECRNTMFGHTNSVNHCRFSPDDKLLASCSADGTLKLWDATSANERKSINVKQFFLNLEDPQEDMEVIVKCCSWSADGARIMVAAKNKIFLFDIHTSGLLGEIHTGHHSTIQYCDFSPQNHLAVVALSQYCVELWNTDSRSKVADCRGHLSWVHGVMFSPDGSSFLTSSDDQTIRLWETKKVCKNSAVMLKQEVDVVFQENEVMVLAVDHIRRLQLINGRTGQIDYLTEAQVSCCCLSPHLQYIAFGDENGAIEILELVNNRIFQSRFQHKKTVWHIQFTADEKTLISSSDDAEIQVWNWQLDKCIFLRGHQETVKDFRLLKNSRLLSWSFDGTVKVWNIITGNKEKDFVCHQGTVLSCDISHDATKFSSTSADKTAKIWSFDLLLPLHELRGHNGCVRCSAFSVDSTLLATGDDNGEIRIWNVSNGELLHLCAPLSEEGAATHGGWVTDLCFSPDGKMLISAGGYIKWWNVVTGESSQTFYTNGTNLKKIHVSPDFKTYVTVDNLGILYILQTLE

[12] = target: Glucose-6-phosphate 1-dehydrogenase (Homo sapiens, UniProt P11413); assay: human G6PD enzyme inhibitors, dose response, selectivity assay for P. falciparum G6PD inhibitor project, biochemical, fluorescence (AID 504792); assay type: functional
P388 = assay: cells; assay type: functional; details: Mus musculus
P388/ADR = assay: cells; assay type: functional; details: Mus musculus
SN12K1 = assay: cells; assay type: functional; details: Homo sapiens
[13] = target: T5, Heat shock factor protein 1 (Mus musculus, UniProt P38532); assay: HSF1 potentiators in luciferase reporter cells, confirmation, cell-based, NIH3T3, luminescence, dose retest (AID 435004); assay type: functional;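 note: stress induced by proteasome inhibitor MG132 added 30 min after compound; luciferase reporter driven by HSF1 response element in NIH3T3 cells; actives raise luminescence as potentiators of the MG132 stress response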
T5 sequence (P38532 whole entry): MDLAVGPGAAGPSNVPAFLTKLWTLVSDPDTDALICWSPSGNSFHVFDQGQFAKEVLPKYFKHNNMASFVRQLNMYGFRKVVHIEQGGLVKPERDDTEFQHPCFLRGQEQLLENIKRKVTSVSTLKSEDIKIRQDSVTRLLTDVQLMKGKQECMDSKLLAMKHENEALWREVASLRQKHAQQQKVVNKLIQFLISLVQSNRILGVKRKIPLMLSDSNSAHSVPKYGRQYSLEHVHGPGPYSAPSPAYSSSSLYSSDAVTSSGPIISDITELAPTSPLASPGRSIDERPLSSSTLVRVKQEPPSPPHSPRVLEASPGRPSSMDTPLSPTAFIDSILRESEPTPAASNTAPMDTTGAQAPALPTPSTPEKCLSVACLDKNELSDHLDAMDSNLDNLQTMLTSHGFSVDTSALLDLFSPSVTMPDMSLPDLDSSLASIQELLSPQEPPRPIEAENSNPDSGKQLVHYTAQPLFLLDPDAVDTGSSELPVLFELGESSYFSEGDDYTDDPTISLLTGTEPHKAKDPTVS

[14] = target: Disintegrin and metalloproteinase domain-containing protein 17 (Homo sapiens, UniProt P78536); assay: exosite inhibitors of ADAM17, dose response, biochemical (AID 743260)
Sequence of Disintegrin and metalloproteinase domain-containing protein 17 (P78536 whole entry, the tested form may be a part): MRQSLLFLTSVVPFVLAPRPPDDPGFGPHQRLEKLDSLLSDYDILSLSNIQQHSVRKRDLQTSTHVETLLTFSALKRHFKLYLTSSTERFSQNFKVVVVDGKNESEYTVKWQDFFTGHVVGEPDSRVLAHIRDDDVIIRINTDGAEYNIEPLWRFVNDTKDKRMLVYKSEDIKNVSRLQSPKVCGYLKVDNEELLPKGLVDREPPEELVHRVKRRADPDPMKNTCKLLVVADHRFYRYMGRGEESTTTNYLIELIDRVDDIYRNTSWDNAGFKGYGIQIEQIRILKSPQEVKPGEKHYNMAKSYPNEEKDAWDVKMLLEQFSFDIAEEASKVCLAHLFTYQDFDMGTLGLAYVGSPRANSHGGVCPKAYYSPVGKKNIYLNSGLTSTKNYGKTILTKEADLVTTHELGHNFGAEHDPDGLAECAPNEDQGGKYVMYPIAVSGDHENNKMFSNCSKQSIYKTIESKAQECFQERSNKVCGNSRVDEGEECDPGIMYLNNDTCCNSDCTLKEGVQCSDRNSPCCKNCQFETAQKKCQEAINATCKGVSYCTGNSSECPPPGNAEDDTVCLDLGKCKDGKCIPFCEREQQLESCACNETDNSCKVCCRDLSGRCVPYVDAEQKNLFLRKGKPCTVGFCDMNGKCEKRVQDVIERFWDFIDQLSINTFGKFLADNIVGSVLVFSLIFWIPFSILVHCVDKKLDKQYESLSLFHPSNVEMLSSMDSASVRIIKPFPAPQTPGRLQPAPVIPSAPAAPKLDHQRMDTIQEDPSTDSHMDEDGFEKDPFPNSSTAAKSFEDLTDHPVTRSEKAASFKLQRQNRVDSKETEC

T1 sequence (P65502 whole entry): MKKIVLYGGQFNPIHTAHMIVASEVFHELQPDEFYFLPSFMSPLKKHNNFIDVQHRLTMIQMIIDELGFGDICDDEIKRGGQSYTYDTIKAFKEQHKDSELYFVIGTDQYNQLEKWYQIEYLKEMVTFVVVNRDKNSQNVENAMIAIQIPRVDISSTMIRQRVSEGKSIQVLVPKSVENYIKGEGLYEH
Sequence of Glucose-6-phosphate 1-dehydrogenase (P11413 whole entry): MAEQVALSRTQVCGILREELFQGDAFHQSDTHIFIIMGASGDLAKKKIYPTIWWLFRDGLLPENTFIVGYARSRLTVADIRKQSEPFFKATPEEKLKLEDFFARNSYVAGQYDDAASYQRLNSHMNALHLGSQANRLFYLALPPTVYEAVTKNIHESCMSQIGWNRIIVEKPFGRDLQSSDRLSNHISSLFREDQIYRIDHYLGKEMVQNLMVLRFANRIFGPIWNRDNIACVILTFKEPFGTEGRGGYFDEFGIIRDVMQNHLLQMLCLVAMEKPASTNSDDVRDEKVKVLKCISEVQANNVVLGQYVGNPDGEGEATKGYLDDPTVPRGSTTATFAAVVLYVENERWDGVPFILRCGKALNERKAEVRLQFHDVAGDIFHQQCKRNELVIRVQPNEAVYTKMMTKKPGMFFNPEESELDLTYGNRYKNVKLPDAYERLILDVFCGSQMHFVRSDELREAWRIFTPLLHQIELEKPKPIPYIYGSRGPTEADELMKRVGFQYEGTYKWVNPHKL

Cn1c(SCC(=O)N2c3ccccc3CCc3ccccc32)nnc1-c1cc2ccccc2cc1O
IC50 [1]: 7.15 µM (active)
IC50 (Prothrombin): > 50 µM (not active)
CC50 [2]: > 50 µM (active)
IC50 [3]: 24.5 µM (active)

Cc1csc(SCC(=O)NCc2ccccc2Cl)n1
IC50 (Prothrombin): > 50 µM (not active)

Cc1ccc(C(=O)Nc2ccc3c(c2)OCCO3)c(Cl)c1
EC50 [4]: 5.14 µM (active)
AC50 [5]: 3.76 µM (active)
AC50 [6]: 3.65 µM (active)
AC50 [7]: > 52 µM (inactive)
EC50 [8]: 6.61 µM (inconclusive)
EC50 [9]: 3.89 µM (active)
AC50 (HEK293): 1.27 µM (active)

COc1ccc(OCC(=O)Nc2cccc3ncccc23)cc1
IC50 (Prothrombin): > 50 µM (not active)

CC(=O)Nc1ccc(S(=O)(=O)[N-]C2=C(n3cc[n+](-c4ccccn4)c3)C(=O)c3ccccc3C2=O)cc1
AC50 [10]: 3.92 µM (active)
EC50 (Protein RecA): 3.46 µM (active)
IC50 [11]: 6.71 µM (active)
IC50 [12]: > 80 µM (inactive)

CCCNC1=C(C)C(=O)C2=C(C1=O)[C@H](COC(N)=O)[C@]1(OC)[C@@H]3N[C@@H]3CN21
GI50 (P388): 0.32 µM (active)
GI50 (P388/ADR): 4.66 µM (inactive)
GI50 (SN12K1): 4.36 µM (inactive)

Cc1ccc(C(C)(C)C[P+](C)(c2ccccc2)c2ccccc2)cc1
GI50 (P388): 0.508 µM (active)
GI50 (P388/ADR): > 100 µM (inactive)
GI50 (SN12K1): 6.49 µM (inactive)

COc1ccc2c(c1)c1c(C)c3cnccc3c(C)c1n2CCCN
GI50 (P388): 0.0505 µM (active)
GI50 (P388/ADR): 0.185 µM (active)
GI50 (SN12K1): 0.102 µM (active)

CC(=O)Nc1cccc(/N=N/N(C)C)c1
GI50 (P388): > 100 µM (inactive)
GI50 (P388/ADR): > 100 µM (inactive)
GI50 (SN12K1): > 57.5 µM (inactive)

CCCC(O)C(NC(=O)CCl)C(=O)O (configuration not stated)
GI50 (P388): > 100 µM (inactive)
GI50 (P388/ADR): > 100 µM (inactive)
GI50 (SN12K1): > 100 µM (inactive)

CSCCC(NC(=O)C(Cc1ccccc1)NC(=O)CNC(=O)CNC(=O)C(N)Cc1ccc(O)cc1)C(=O)O (configuration not stated)
GI50 (P388): > 100 µM (inactive)
GI50 (P388/ADR): > 100 µM (inactive)
GI50 (SN12K1): > 100 µM (inactive)

COC(=O)c1cccc(Cn2c(Cl)c(/C=N/Nc3ccccc3C)sc2=O)c1
EC50 [13]: 61.2 µM (active)
IC50 [14]: > 69.5 µM (inactive)
